Usually IC50 stands for the concentration at which inhibition is half-maximal. Higher therefore signals a need for much substance.

This passage reports IC50 results from BindingDB's records for doi:10.1016/0960-894X(95)00347-V (1995).

Molecules are shown by their SMILES.

Experiment [1] is described as follows: Inhibition of porcine Pancreatic elastase without pre-incubation.
Assay in experiment [2]: as above
The source holds these as a separate data set.

Assay in experiment [3]: as above
The source holds these as a separate data set.

A short description of experiment [4]: Inhibition of porcine Pancreatic elastase with 10 min pre-incubation.

As for `Cc1ccc(S(=O)(=O)O[C@H]2C(=O)N3[C@@H](C(=O)OCc4ccccc4)C(C)(C)S(=O)(=O)[C@H]23)cc1` [(2S,5R,6S)-3,3-Dimethyl-4,4,7-trioxo-6-(toluene-4-sulfonyloxy)-4lambda*6*-thia-1-aza-bicyclo[3.2.0]heptane-2-carboxylic acid benzyl ester], the IC50 in experiment [1] is 0.15 µM; in experiment [2], 23 µM. Compound `CC(C)(C)C(=O)OCOC(=O)[C@@H]1N2C(=O)[C@H](OS(=O)(=O)C(F)(F)F)[C@H]2S(=O)(=O)C1(C)C` [(2S,5R,6S)-3,3-Dimethyl-4,4,7-trioxo-6-trifluoromethanesulfonyloxy-4lambda*6*-thia-1-aza-bicyclo[3.2.0]heptane-2-carboxylic acid 2,2-dimethyl-propionyloxymethyl ester] displayed an IC50 in experiment [3] of 1 µM. In the case of `CC(C)(C)C(=O)OCOC(=O)[C@@H]1N2C(=O)[C@H](Cl)[C@H]2S(=O)(=O)C1(C)C` [(2S,5R,6S)-6-Chloro-3,3-dimethyl-4,4,7-trioxo-4lambda*6*-thia-1-aza-bicyclo[3.2.0]heptane-2-carboxylic acid 2,2-dimethyl-propionyloxymethyl ester], the IC50 in experiment [1] turned out to be 220 µM; in experiment [2], 280 µM. The matching figures for `CC1(C)[C@H](C(=O)OCc2ccccc2)N2C(=O)[C@H](OS(C)(=O)=O)[C@H]2S1(=O)=O` [(2S,5R,6S)-6-Methanesulfonyloxy-3,3-dimethyl-4,4,7-trioxo-4lambda*6*-thia-1-aza-bicyclo[3.2.0]heptane-2-carboxylic acid benzyl ester]: 0.13 µM and 2.2 µM. On to `CC(C)(C)C(=O)OCOC(=O)[C@@H]1N2C(=O)[C@H](OS(C)(=O)=O)[C@H]2S(=O)(=O)C1(C)C` [(2S,5R,6S)-6-Methanesulfonyloxy-3,3-dimethyl-4,4,7-trioxo-4lambda*6*-thia-1-aza-bicyclo[3.2.0]heptane-2-carboxylic acid 2,2-dimethyl-propionyloxymethyl ester], for which the IC50 in experiment [3] was determined as 4.3 µM; in experiment [4], 0.54 µM.

As to `Cc1ccc(S(=O)(=O)O[C@H]2C(=O)N3[C@@H](C(=O)OCOC(=O)C(C)(C)C)C(C)(C)S(=O)(=O)[C@H]23)cc1` [(2S,5R,6S)-3,3-Dimethyl-4,4,7-trioxo-6-(toluene-4-sulfonyloxy)-4lambda*6*-thia-1-aza-bicyclo[3.2.0]heptane-2-carboxylic acid 2,2-dimethyl-propionyloxymethyl ester], the IC50 amounted to 2.1 µM in experiment [3] and 0.49 µM in experiment [4]. In experiment [3], `CC1(C)[C@H](C(=O)OCc2ccccc2)N2C(=O)[C@H](OS(=O)(=O)C(F)(F)F)[C@H]2S1(=O)=O` [(2S,5R,6S)-3,3-Dimethyl-4,4,7-trioxo-6-trifluoromethanesulfonyloxy-4lambda*6*-thia-1-aza-bicyclo[3.2.0]heptane-2-carboxylic acid benzyl ester] came in with an IC50 of 0.68 µM.
